Assay results as given in ChEMBL document CHEMBL1148518, “Synthesis and SAR of alpha-sulfonylcarboxylic acids as potent matrix metalloproteinase inhibitors” (Bioorg Med Chem Lett, 2006).

How the values were obtained:
[1] = target: 72 kDa type IV collagenase (Homo sapiens, UniProt P08253)
[2] = target: Matrix metalloproteinase-9 (Homo sapiens, UniProt P14780)
[3] = target: T1, Interstitial collagenase (Homo sapiens, UniProt P03956); test: Inhibition of MMP1
T1 sequence (P03956 whole entry): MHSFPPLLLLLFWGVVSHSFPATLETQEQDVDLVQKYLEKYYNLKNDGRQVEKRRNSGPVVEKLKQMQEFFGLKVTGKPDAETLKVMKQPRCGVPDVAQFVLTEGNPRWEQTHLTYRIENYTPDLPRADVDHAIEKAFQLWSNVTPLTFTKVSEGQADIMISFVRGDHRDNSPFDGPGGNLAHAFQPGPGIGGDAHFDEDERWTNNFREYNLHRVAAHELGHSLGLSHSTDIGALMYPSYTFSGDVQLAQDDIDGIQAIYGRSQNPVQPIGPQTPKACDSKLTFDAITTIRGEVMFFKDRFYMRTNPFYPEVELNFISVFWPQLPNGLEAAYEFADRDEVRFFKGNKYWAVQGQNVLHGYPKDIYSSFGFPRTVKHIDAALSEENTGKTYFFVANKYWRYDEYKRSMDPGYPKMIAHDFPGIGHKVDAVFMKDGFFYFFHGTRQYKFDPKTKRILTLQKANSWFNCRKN

[4] = target: Stromelysin-1 (Homo sapiens, UniProt P08254); test: Inhibition of MMP3
[5] = target: Collagenase 3 (Homo sapiens, UniProt P45452)
[6] = tested on: Rattus norvegicus; test: (§1) Apparent elimination half life in rat at 0.5 mg/kg, iv; format: ADME, organism-based; design: dose 0.5 mg/kg, route intravenous; conditions: in vivo
[7] = AUC in rat at 0.5 mg/kg, iv; format: ADME, organism-based; design: dose 0.5 mg/kg, route intravenous; conditions: plasma
[8] = tested on: Rattus norvegicus; test: (§2) Volume of distribution in rat at 0.5 mg/kg, iv; format: ADME, organism-based; design: dose 0.5 mg/kg, route intravenous; conditions: in vivo
[9] = Metabolic stability in human liver microsomes; format: ADME, Microsome
[10] = Initial concentration in rat at 0.5 mg/kg, iv; format: ADME, organism-based; design: dose 0.5 mg/kg, route intravenous; conditions: in vivo
[11] = as §1; format: ADME, organism-based; design: dose 0.5 mg/kg, route intravenous; conditions: in vivo
[12] = as §2; format: ADME, organism-based; design: dose 0.5 mg/kg, route intravenous; conditions: in vivo, read-out: Vss
[13] = Clearance in rat at 0.5 mg/kg, iv; format: ADME, organism-based; design: dose 0.5 mg/kg, route intravenous; conditions: in vivo

Sequence of 72 kDa type IV collagenase (P08253 whole entry): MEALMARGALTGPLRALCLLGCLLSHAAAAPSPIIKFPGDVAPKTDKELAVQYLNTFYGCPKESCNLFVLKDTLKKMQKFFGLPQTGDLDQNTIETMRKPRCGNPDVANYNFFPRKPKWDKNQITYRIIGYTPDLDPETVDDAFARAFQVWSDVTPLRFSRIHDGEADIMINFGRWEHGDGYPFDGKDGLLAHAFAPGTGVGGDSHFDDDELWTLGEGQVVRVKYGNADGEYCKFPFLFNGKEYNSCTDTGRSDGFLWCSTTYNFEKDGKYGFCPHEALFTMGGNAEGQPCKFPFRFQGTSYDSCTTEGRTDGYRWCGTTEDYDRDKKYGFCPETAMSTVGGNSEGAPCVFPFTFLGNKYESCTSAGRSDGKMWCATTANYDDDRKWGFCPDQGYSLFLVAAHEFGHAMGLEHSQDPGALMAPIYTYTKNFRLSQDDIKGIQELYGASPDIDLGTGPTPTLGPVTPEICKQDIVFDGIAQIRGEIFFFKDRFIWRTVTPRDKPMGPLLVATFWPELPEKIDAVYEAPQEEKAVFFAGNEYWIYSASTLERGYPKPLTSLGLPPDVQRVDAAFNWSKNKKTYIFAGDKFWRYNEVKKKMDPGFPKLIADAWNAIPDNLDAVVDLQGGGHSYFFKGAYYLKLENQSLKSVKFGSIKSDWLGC
Sequence of Matrix metalloproteinase-9 (P14780 whole entry): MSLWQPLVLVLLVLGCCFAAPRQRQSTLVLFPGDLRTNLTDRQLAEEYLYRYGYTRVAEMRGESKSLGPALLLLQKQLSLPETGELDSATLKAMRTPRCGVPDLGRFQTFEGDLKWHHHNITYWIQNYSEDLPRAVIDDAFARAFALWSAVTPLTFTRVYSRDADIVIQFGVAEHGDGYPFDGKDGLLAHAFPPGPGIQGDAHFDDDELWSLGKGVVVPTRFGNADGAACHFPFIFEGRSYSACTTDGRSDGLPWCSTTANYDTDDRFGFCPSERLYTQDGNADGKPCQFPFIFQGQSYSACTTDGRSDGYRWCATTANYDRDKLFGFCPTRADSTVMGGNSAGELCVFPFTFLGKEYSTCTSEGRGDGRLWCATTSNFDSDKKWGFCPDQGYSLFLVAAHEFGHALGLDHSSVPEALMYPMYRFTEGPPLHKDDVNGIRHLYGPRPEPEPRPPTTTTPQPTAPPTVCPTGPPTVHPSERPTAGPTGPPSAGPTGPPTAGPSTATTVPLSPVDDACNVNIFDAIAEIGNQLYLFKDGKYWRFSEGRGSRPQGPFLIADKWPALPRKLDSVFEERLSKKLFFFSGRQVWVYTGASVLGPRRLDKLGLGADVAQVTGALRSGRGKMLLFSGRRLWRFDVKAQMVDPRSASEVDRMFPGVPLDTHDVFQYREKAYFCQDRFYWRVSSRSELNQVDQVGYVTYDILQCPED
Sequence of Stromelysin-1 (P08254 whole entry): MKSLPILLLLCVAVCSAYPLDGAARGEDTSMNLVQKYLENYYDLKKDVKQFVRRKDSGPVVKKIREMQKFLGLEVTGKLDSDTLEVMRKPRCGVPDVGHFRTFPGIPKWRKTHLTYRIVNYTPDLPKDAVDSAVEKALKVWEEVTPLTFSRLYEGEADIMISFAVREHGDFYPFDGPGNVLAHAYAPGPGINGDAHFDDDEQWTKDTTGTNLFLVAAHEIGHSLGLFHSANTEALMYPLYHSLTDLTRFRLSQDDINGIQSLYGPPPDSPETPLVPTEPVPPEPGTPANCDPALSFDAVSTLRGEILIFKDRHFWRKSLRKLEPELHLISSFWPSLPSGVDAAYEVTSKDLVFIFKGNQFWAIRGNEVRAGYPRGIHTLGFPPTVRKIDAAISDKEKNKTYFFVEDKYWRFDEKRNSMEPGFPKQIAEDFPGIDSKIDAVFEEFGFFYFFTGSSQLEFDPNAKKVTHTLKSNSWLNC

Row | Structure (SMILES) | IC50 [1] | also measured
1 | COc1cccc(C#Cc2ccc(SC(CCN3C(=O)c4ccccc4C3=O)C(=O)O)cc2)c1 (centres undefined) | 4 nM | –
2 | O=C(O)C(CCSc1ccccc1)S(=O)(=O)c1ccc(-c2ccc(Cl)cc2)cc1 (centres undefined) | 295 nM | IC50 [2]: > 10000 nM
3 | COc1ccc(C(=O)Cc2ccc(SC(CCN3C(=O)c4ccccc4C3=O)C(=O)O)cc2)cc1 (centres undefined) | 54 nM | –
4 | CC(CCN1Cc2ccccc2C1)(C(=O)O)S(=O)(=O)c1ccc(-c2ccc(Cl)cc2)cc1 (centres undefined) | 3060 nM | IC50 [2]: > 10000 nM
5 | O=C(O)C(CCN1C(=O)c2ccccc2C1=O)Sc1ccc(C#Cc2ccc(OC(F)(F)F)cc2)cc1 (centres undefined) | 1.3 nM | –
6 | O=C(O)C(CCN1C(=O)c2ccccc2C1=O)S(=O)(=O)c1ccc(-c2nc3ccc(F)cc3[nH]2)cc1 (centres undefined) | 0.7 nM | IC50 [3]: > 1000 nM; IC50 [4]: 34 nM; IC50 [5]: 0.8 nM
7 | Cc1ccc(C#Cc2ccc(S(=O)(=O)C(CCN3C(=O)c4ccccc4C3=O)C(=O)O)cc2)cc1 (centres undefined) | 0.7 nM | IC50 [3]: > 1000 nM; IC50 [4]: 28 nM; IC50 [5]: 1.4 nM
8 | CC(C)c1ccc(C#Cc2ccc(SC(CCN3C(=O)c4ccccc4C3=O)C(=O)O)cc2)cc1 (centres undefined) | 1.7 nM | –
9 | CCCCc1ccc(C#Cc2ccc(SC(CCN3C(=O)c4ccccc4C3=O)C(=O)O)cc2)cc1 (centres undefined) | 2.3 nM | –
10 | O=C(O)C(CCN1C(=O)c2ccccc2C1=O)Sc1ccc(C#Cc2ccc(Cl)cc2)cc1 (centres undefined) | 1.9 nM | –
11 | CCc1ccc(C#Cc2ccc(SC(CCN3C(=O)c4ccccc4C3=O)C(=O)O)cc2)cc1 (centres undefined) | 1.3 nM | –
12 | CCCc1ccc(C#Cc2ccc(SC(CCN3C(=O)c4ccccc4C3=O)C(=O)O)cc2)cc1 (centres undefined) | 1.1 nM | –
13 | CCCC(C(=O)O)S(=O)(=O)c1ccc(-c2ccc(Cl)cc2)cc1 (centres undefined) | 792 nM | IC50 [2]: 10000 nM

Further lines, with some results ahead:

Row | IC50 [1] | Structure (SMILES) | also measured
14 | 0.98 nM | CC(C)c1ccc(-c2ccc(S(=O)(=O)C(CCN3C(=O)c4ccccc4C3=O)C(=O)O)cc2)cc1 (centres undefined) | –
15 | 0.74 nM | CSc1ccc(-c2ccc(S(=O)(=O)C(CCN3C(=O)c4ccccc4C3=O)C(=O)O)cc2)cc1 (centres undefined) | –
16 | 6.5 nM | O=C(O)C(CCN1C(=O)c2ccccc2C1=O)S(=O)(=O)c1ccc(-c2ccc(F)cc2)cc1 (centres undefined) | –
17 | 1.2 nM | Cc1ccc(-c2ccc(S(=O)(=O)C(CCN3C(=O)c4ccccc4C3=O)C(=O)O)cc2)cc1 (centres undefined) | –
18 | 33 nM | Cc1ccc(C#Cc2ccc(SC(CCN3C(=O)c4ccccc4C3=O)C(=O)O)cc2)cc1 (centres undefined) | –
19 | 3 nM | N#Cc1ccc(-c2ccc(S(=O)(=O)C(CCN3C(=O)c4ccccc4C3=O)C(=O)O)cc2)cc1 (centres undefined) | –
20 | 1.8 nM | O=C(O)C(CCN1C(=O)c2ccccc2C1=O)S(=O)(=O)c1ccc(-c2ccc(Cl)cc2)cc1 (centres undefined) | T1/2 [6]: 84 min; AUC [7]: 18200 ng·h/mL; Vss [8]: 0.4 L/kg; half-life [9]: 230 min; C0 [10]: 41.4 µM
21 | 19 nM | O=C(O)C(CCN1C(=O)c2ccccc2C1=O)S(=O)(=O)c1ccc(Oc2ccc(OC(F)(F)F)cc2)cc1 (centres undefined) | –
22 | 6.8 nM | N#Cc1ccc(N2CCN(c3ccc(S(=O)(=O)C(CCN4C(=O)c5ccccc5C4=O)C(=O)O)cc3)CC2)cc1 (centres undefined) | –
23 | 12 nM | O=C(O)C(CCN1C(=O)c2ccccc2C1=O)S(=O)(=O)c1ccc(N2CC=C(c3ccc(Cl)cc3)CC2)cc1 (centres undefined) | –
24 | 0.84 nM | COc1ccc(-c2ccc(S(=O)(=O)C(CCN3C(=O)c4ccccc4C3=O)C(=O)O)cc2)cc1 (centres undefined) | –
25 | 8.6 nM | O=C(O)C(CCN1Cc2ccccc2C1=O)S(=O)(=O)c1ccc(-c2ccc(Cl)cc2)cc1 (centres undefined) | IC50 [2]: 96.5 nM
26 | 556 nM | O=C(O)C(CN1C(=O)c2ccccc2C1=O)S(=O)(=O)c1ccc(-c2ccc(Cl)cc2)cc1 (centres undefined) | IC50 [2]: 1050 nM
27 | 1.5 nM | Cc1ccc(C#Cc2ccc([S+]([O-])C(CCN3C(=O)c4ccccc4C3=O)C(=O)O)cc2)cc1 (centres undefined) | –
28 | 145 nM | O=C(O)C(CCCN1C(=O)c2ccccc2C1=O)S(=O)(=O)c1ccc(-c2ccc(Cl)cc2)cc1 (centres undefined) | IC50 [2]: 2120 nM
29 | 52 nM | CC(CCN1C(=O)c2ccccc2C1=O)(C(=O)O)S(=O)(=O)c1ccc(-c2ccc(Cl)cc2)cc1 (centres undefined) | –
30 | 0.62 nM | O=C(NO)C(CCN1C(=O)c2ccccc2C1=O)S(=O)(=O)c1ccc(-c2ccc(Cl)cc2)cc1 (centres undefined) | half-life [11]: 58.8 min; AUC [7]: 2940 ng·h/mL; Vd [12]: 0.1 L/kg; clearance [13]: 2.9 mL/min/kg; half-life [9]: 12 min; C0 [10]: 13.9 µM; IC50 [2]: 1.4 nM
